Key:
phospho-STAT-3 = experiment: Phospho-STAT-3 immunoassay (Western blot) in BT20 breast cancer cells; assay type: cell-based, human; conditions: 25 μM
Protocol: Human breast carcinoma cell lines, BT20, 126, T47D, MCF-7, ZR75, BT474, 415, and 435 were maintained in Dulbecco's modified eagle medium (DMEM), supplemented with 10% fetal bovine serum (FBS) (complete medium) in a 37° C. incubator with 5% CO2. STAT-3 (C-20) antibody, which recognizes phosphorylated and non-phosphorylated STAT-3, was purchased from Santa Cruz Biotechnologies and utilized as a positive control. Phospho-STAT-3 antibody was purchased from New England Biolabs. Rabbit anti-mouse antibody (secondary antibody for anti-STAT-3 and antiphospho-STAT-3) were purchased from Amersham International.
BT-20 cells were seeded at a density of 2×10^6 cells per 100 mm diameter dish and allowed to grow for 24 hours. Fresh medium was added to each plate 2 hours before treatment with the compound. The compound was dissolved in DMSO to make 5 mM stock solution and added to the medium (10 ml) to obtain a final concentration of 25 μM. DMSO alone was added to the control cells to study the effect of vehicle. […]
Equal amounts total protein ([…]) were run in each lane of SDS-PAGE gel (10%) and transferred to IMMOBILON-P (Millipore, USA). […] The antibody was detected using the ECL Western blotting analysis kit (Amersham International) following the manufacturer's instructions.

BT20 cells = experiment: Killing of BT20 cells determined by Trypan blue exclusion; assay type: cell-based, human; conditions: 2.5 μM in DMSO, within 72 hours of treatment

Structure (SMILES): O=S(=O)(/C=C/c1ccc(F)cc1)Cc1ccc(Cl)cc1 [FRI-20, E-4-fluorostyryl 4-chlorobenzyl sulfone]
- phospho-STAT-3 staining after treatment (phospho-STAT-3; 48 hours at 37° C., phospho-STAT-3 antibody Western blot (FIG. 9)): complete loss of phospho-STAT-3
- STAT-3 staining (STAT-3 expression) after treatment (phospho-STAT-3; 48 hours, STAT-3 antibody Western blot (FIG. 9)): stained positive for STAT-3
- BT20 cells killed (BT20 cells): more than 95%

— US20040203067A1, “Methods for cancer prognosis and screening antiproliferative agents” (Temple University - Of The Commonwealth System of Higher …, priority 1998, published 2004)
